Measurements taken from US7084158B2, “Substituted propargylamines” (Bayer Cropscience S.A., priority 2001, dated 2006).

How the values were obtained:
Format in all cases: in vivo
Design in all cases: key: compounds were considered to be active when, at a concentration of 500 ppm or less, they had an activity on the harmful organisms of 50% or more
Heliothis virescens [1] = experiment: Example B: tobacco budworm eggs on filter paper/insect diet, mortality; conditions: 500 ppm or less; 24-hour-old eggs dipped, diet treated; after 6 days
[2] = system: Diabrotica undecimpunctata; experiment: Example C: corn rootworm eggs with maize corn, mortality; conditions: 500 ppm or less; 4-5-day-old eggs; after 6 days
Spodoptera littoralis = experiment: Example G: treated L2 larvae and insect diet, Egyptian cotton leafworm mortality; conditions: 500 ppm or less, after 6 days
Method: A Petri dish whose bottom was covered with filter paper and which contained about 5 ml of insect diet is prepared. Five L2 larvae of the Egyptian cotton leafworm (Spodoptera littoralis) were counted into a small beaker. 200 μl of an aqueous solution of the formulated preparation to be examined were pipetted into the beaker. The treated larvae were then poured into the Petri dish, and a further 200 μl of the aqueous solution were distributed over the insect diet. The Petri dish was closed and then stored at about 25° C. in a climatized chamber. After 6 days of storage, the effect of the compound on the larvae was determined (mortality). The compounds of the following examples were active: 29, 70, 60, 159, 1005, 1040, 1042, 1044, 1045, 1046, 1047.

Meloidogyne incognita = experiment: Example H: root gall nematode larvae immobilization (contact activity); conditions: 500 ppm or less; 2nd stage larvae; 6 days permanent exposure
Method: In a glass vessel, an aqueous solution of the formulated compound to be examined was added to about 3000 freshly hatched active (mobile) larvae (2nd development stage) of the root gall nematode (Meloidogyne incognita) (final volume 20 ml). After 6 days of permanent exposure of the nematode larvae, the percentage of the individual larvae immobilized by the activity of the compound was determined in comparison to the untreated controls (contact activity). The compounds of the following examples were active: 39, 52, 159, 161, 162, 163, 164, 165, 1045, 1046, 1047, 179, 183, 187, 1048, 298, 206, 208, 227, 230, 1061, 237, 238, 245, 250, 255, 256, 260, 268, 269, 274, 275, 288, 290.

[3] = system: Leptinotarsa decemlineata; experiment: Example L: potato leaves and larvae sprayed, Colorado beetle mortality; conditions: 500 ppm or less, after 4 days
Method: Potato leaves were populated with larvae of the Colorado beetle (Leptinotarsa decemlineata). Leaves and larvae were then sprayed with an aqueous solution of the formulated compound to be examined. After 4 days of storage at about 25° C., the effect of the compound on the larvae was determined (mortality). The compounds of the following examples were active: 60, 70, 1002, 1004, 1005, 1036, 1047, 197.

Spodoptera exigua [4] = experiment: Example Y: cotton plants sprayed, cut leaves, sugar beet armyworm mortality; conditions: 500 ppm or less, leaves cut after drying, L2 larvae, after 4 days
Method: Cotton plants were sprayed with an aqueous solution of the formulated compound to be examined. After drying, leaves were cut off, placed into a Petri dish and populated with 5 L2 larvae of the sugar beet armyworm (Spodoptera exigua). After 4 days of storage at about 23° C., the mortality among the larvae was determined. The following examples were active: 1036, 70, 60, 1047, 197.

Spodoptera exigua [5] = experiment: Example Z: cotton leaves with larvae sprayed, sugar beet armyworm mortality; conditions: 500 ppm or less; cotton leaves populated then sprayed; L2 larvae; after 4 days
Method: Cotton leaves were populated with 5 L2 larvae of the sugar beet armyworm (Spodoptera exigua) and then sprayed with an aqueous solution of the formulated compound to be examined. After 4 days of storage at about 23° C., the mortality among the larvae was determined. The following examples were active: 1036, 70, 60, 1047, 197.

Heliothis virescens [6] = experiment: Example AB: cotton leaves with larvae sprayed, tobacco budworm mortality; conditions: 500 ppm or less; cotton leaves with L2 larvae sprayed; after 4 days
Method: Cotton leaves were placed into a Petri dish, populated with 5 L2 larvae of the American tobacco budworm (Heliothis virescens) and sprayed with an aqueous solution of the formulated compound to be examined. After 4 days of storage at about 25° C., the mortality among the larvae was determined. The following examples were active: 70, 1047, 197.

Aphis fabae = experiment: Example R: field bean, root-systemic activity on black bean aphids; conditions: 500 ppm or less; solution pipetted into bottle; after 3 and 6 days
Method: Germinated field bean seeds (Vicia faba) with radicles were transferred into brown glass bottles filled with tap water. Four milliliters of an aqueous solution of the formulated compound to be examined were pipetted into the brown glass bottle. The field bean was then heavily populated with approximately 100 black bean aphids (Aphis fabae). Plant and animals were then stored in a climatized chamber (16 hours of light/day, 25° C., 40–60% relative atmospheric humidity). After 3 and 6 days of storage, the root-systemic activity of the compound on the aphids was determined (mortality). The following examples were active: 184, 186, 305, 220, 265.

Ctenocephalides felis = experiment: Example M: cat fleas fed with treated cattle blood, mortality; conditions: 500 ppm or less; adult fleas fed blood-preparation mixture; after 48 hours
Method: The formulated compound was mixed with defibrinated cattle blood. 10 adult cat fleas (Ctenocephalides felis) were fed with this blood-preparation mixture. After 48 hours at about 38° C., the effect of the compound on the fleas was determined (mortality). The compounds of the following examples were active: 70, 1002, 1004, 1005, 1036, 60, 197, 1057.

Spodoptera exigua [7] = experiment: Example S: treated L2 larvae and insect diet, sugar beet army worm mortality; conditions: 500 ppm or less, after 6 days
Method: A Petri dish whose bottom was covered with filter paper and which contains about 5 ml of insect diet is prepared. Five L2 larvae of sugar beet army worm (Spodoptera exigua) were counted into a small beaker. 200 μl of an aqueous solution of the formulated compound to be examined were pipetted into the beaker. The treated larvae were then poured into the Petri dish and a further 200 μl of the aqueous solution were distributed over the insect diet. The Petri dish was closed and then stored at 25° C. in a climatized chamber. After 6 days of storage, the mortality among the larvae was determined. The following examples were active: 1036, 175, 184, 1051, 1054, 1055, 234, 1057, 1059, 1060, 1063, 243, 245, 251, 257, 259, 266, 1065, 1067, 290, 291.

Rhipicephalus sanguineus = experiment: Example AF: treated filter paper, tick larvae mortality; conditions: 500 ppm or less, after 24 hours
Method: The formulated compound was pipetted onto filter paper. After the solvent had evaporated, 20–30 tick larvae (Rhipicephalus sanguineus) were placed onto the filter paper. After 24 hours at about 25° C., the effect of the compound on the ticks was determined (mortality). The following examples were active: 197, 1057.

Aedes aegypti = experiment: Example AG: microtiter plate, yellow fever mosquito larvicidal activity; conditions: 500 ppm or less, after 3 days

CC1CCN(CC#Cc2cc(C(F)(F)F)cc(C(F)(F)F)n2)CC1.Cl [Example 1047]
active: effect on the eggs and hatched larvae (mortality) (Heliothis virescens [1]) | effect on the eggs and hatched larvae (mortality) [2] | effect on the larvae (mortality) (Spodoptera littoralis) | percentage of larvae immobilized (contact activity) (Meloidogyne incognita) | effect on the larvae (mortality) [3] | mortality among the larvae (Spodoptera exigua [4]) | mortality among the larvae (Spodoptera exigua [5]) | mortality among the larvae (Heliothis virescens [6])

CC1CCN(CC#Cc2cccc(-c3ccc([N+](=O)[O-])cc3)c2)CC1 [Example 220]
active: root-systemic activity on the aphids (mortality) (Aphis fabae)

CC1CCN(CC#Cc2cc(C(F)(F)F)cc(Cl)n2)CC1.Cl [Example 1057]
active: effect on the eggs and hatched larvae (mortality) (Heliothis virescens [1]) | effect on the eggs and hatched larvae (mortality) [2] | effect on the fleas (mortality) (Ctenocephalides felis) | mortality among the larvae (Spodoptera exigua [7]) | effect on the ticks (mortality) (Rhipicephalus sanguineus) | larvicidal activity (Aedes aegypti)
